“And” between values parts separate entries of the source, which are not always exact repeats. Equal values may be shown once.
Experiments:
[1] = tested on: Dirofilaria immitis microfilariae; test: Dirofilaria immitis microfilariae immobility assay (DiroImager, 72 h); conditions: for % effect (motility), DIROIM MF: Dirofilaria immitis microfilariae
Method in brief: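 Motility read after 72 h drug exposure with an image-based high-throughput plate imager, 1% DMSO medium serving as negative control. Missouri-isolate microfilariae, roughly 250 per well, freshly purified and cultured in supplemented RPMI 1640.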

[2] = tested on: Dirofilaria immitis L3/L4; test: Dirofilaria immitis L3/L4 motility assay (DiroImager, 72 h); conditions: for % effect (motility), DIROIM L4: Dirofilaria immitis L4
Pristionchus pacificus = Pristionchus pacificus motor disruption dose-response on solid media, 1 h; conditions: for mean % any phene (coiled, jerky-Unc or paralyzed): Pristionchus pacificus young adults, mean of three biological replicates
C. elegans = C. elegans motor phenotype scoring on solid media (Punc/jerky-unc, coiled, paralyzed), wild-type young adults; type: in vivo, Caenorhabditis elegans; conditions: for any phene, mean % fraction of young adults exhibiting any phenotype (coiled, jerky-Unc or paralyzed) / atypical locomotion (number of animals) / coiled (number of animals) / no phene (number of animals) / paralyzed (number of animals): one hour; for any phene, mean % fraction of young adults exhibiting any phenotype (coiled, jerky-Unc or paralyzed): mean of three biological replicates; for atypical locomotion (number of animals) / coiled (number of animals) / no phene (number of animals) / paralyzed (number of animals): young adults, 20 animals per trial, single replicate counts
rat VAChT = molecular target: T1, rat VAChT (Rattus norvegicus, UniProt Q62666); test: [3H]Vesamicol competitive radioligand binding, PC12 cells expressing ratVAChT; conditions: [3H]Vesamicol displacement, mean; read-out: ratVAChT Ki
T1 construct: expressed in transfected cells; host or cells: rat PC12 (PC12 A123.7) cells, stably transfected; shared by Dr. Ali Roghani (Texas Tech University)
T1 sequence (Q62666 1-530): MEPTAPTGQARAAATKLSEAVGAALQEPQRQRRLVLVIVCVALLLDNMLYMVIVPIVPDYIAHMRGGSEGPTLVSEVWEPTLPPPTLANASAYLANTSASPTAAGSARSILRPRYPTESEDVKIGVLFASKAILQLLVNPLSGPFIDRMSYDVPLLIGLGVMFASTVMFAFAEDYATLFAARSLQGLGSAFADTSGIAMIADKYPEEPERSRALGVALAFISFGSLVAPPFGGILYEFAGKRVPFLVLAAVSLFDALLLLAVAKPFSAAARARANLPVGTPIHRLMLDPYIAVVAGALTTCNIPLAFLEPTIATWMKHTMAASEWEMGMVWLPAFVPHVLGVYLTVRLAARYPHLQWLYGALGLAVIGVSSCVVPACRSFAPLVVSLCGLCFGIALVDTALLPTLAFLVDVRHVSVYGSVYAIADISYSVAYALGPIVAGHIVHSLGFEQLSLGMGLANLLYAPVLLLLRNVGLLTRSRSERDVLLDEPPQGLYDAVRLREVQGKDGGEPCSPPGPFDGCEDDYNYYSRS

In the case of `CC1CCC(N2CCN(c3ccc([N+](=O)[O-])cc3)CC2)CC1` (stereo not shown) [Nemacol-5], the “% effect (motility), DIROIM MF” value ([1]; 0.08 µM) is reported as 0%, the “% effect (motility), DIROIM MF” value ([1]; 0.4 µM) is reported as 0% and the “% effect (motility), DIROIM MF” value ([1]; 2 µM) is reported as 20%. The “% effect (motility), DIROIM MF” value ([1]; 10 µM) was 80%, the “% effect (motility), DIROIM MF” value ([1]; 50 µM) was 100% and the EC50 ([1]; Dirofilaria immitis, 72 h, read-out: Dirofilaria immitis filariae EC50) was 4.5 µM. For the same compound, the “% effect (motility), DIROIM L4” value ([2]; 0.016 µM) was 5%, the “% effect (motility), DIROIM L4” value ([2]; 0.08 µM) was 0% and the “% effect (motility), DIROIM L4” value ([2]; 0.4 µM) was 0%. For the same compound, the “% effect (motility), DIROIM L4” value ([2]; 2 µM) was 10%, the “% effect (motility), DIROIM L4” value ([2]; 10 µM) was 100% and the “% effect (motility), DIROIM L4” value ([2]; 50 µM) was 100%. The “activity against D. immitis (EC50)” value ([2]; either D. immitis assay of Fig. 4c) was “low micromolar activity”, the “mean % any phene (coiled, jerky-Unc or paralyzed)” value (from here on “mean % any phene”) (Pristionchus pacificus; conc 3.75, observed at one hour) was 0% and the “mean % any phene” value (Pristionchus pacificus; conc 15, observed at one hour) was 15%. The “mean % any phene” value (Pristionchus pacificus; conc 60, observed at one hour) was 100%, the EC50 (Pristionchus pacificus; Pristionchus pacificus, 1 h, read-out: P. pacificus motor disruption EC50) was 16.5 µM and the “any phene, mean % fraction of young adults exhibiting any phenotype (coiled, jerky-Unc or paralyzed)” value (shortened to “any phene, mean % fraction”) (C. elegans; 3.75uM) was 3.333%. The “atypical locomotion (number of animals)” value (C. elegans; 3.75uM) was 0 and 3 and 1, the “coiled (number of animals)” value (C. elegans; 3.75uM) was 0 and the “no phene (number of animals)” value (C. elegans; 3.75uM) was 20 and 17 and 19. The “paralyzed (number of animals)” value (C. elegans; 3.75uM) was 0, the “any phene, mean % fraction” value (C. elegans; 15uM) was 97.5% and the “atypical locomotion (number of animals)” value (C. elegans; 15uM) was 9 and 12 and 13. For the same compound, the “coiled (number of animals)” value (C. elegans; 15uM) was 10 and 6 and 5 and 4, the “no phene (number of animals)” value (C. elegans; 15uM) was 0 and 3 and the “paralyzed (number of animals)” value (C. elegans; 15uM) was 1 and 2 and 0 and 3 and 5. For the same compound, the “any phene, mean % fraction” value (C. elegans; 60uM) was 100%, the “atypical locomotion (number of animals)” value (C. elegans; 60uM) was 1 and 3 and 0 and 2 and 16 and 15 and the “coiled (number of animals)” value (C. elegans; 60uM) was 16 and 12 and 14 and 13 and 0. For the same compound, the “no phene (number of animals)” value (C. elegans; 60uM) was 0, the “paralyzed (number of animals)” value (C. elegans; 60uM) was 3 and 5 and 6 and 4 and the EC50 (C. elegans; Caenorhabditis elegans, any motor phenotype after 1 h on solid media, ± 95% CI, read-out: C. elegans - motor disruption EC50) was 7.3 ± 3.8 µM. It also gave a Ki (rat VAChT) of 376 nM.

Source: article PMC10066365, “Nemacol is a small molecule inhibitor of C. elegans vesicular acetylcholine transporter with anthelmintic potential” (Nature Communications, 2023)
